Results taken from PubChem BioAssay (NCI).
“And” between values parts separate entries of the source, which are not always exact repeats. Equal entries are not always repeated.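 Values below derive from 48-hour exposures of cells grown in 96-well plates, with endpoints linearly interpolated between the two concentrations bracketing the appropriate inhibition level. GI50 marks 50% less growth. TGI denotes the concentration required for complete inhibition of growth.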

Experiments:
Test in all cases: DTP human tumour cell line panel, 48 h
[1] = test system: NCI-H522 lung
[2] = test system: SW-620 colon
[3] = test system: KM12 colon
[4] = test system: SNB-19 CNS
[5] = test system: K-562 leukemia
[6] = test system: UO-31 renal
[7] = test system: SF-295 CNS
[8] = test system: MDA-N
[9] = test system: MCF7 breast
[10] = test system: CAKI-1 renal
[11] = test system: OVCAR-3 ovarian
[12] = test system: SK-MEL-2 melanoma
[13] = test system: PC-3 prostate
[14] = test system: SF-268 CNS
[15] = test system: HT29 colon
[16] = test system: NCI-H460 lung
[17] = test system: SR leukemia
[18] = test system: DU-145 prostate

Row | SMILES | TGI [1] | TGI [2] | TGI [3] | TGI [4] | TGI [5] | TGI [6] | TGI [7] | TGI [8] | TGI [9] | TGI [10] | TGI [11] | TGI [12] | TGI [13] | TGI [14] | TGI [15] | TGI [16] | TGI [17] | TGI [18] | GI50 [3]
1 | CCCCCCCCCCCCCCCCCCNc1ccn(C2OC(CO)C(O)C2O)c(=O)n1 (stereo not drawn) | > 100 µM | > 100 µM | > 100 µM | > 100 µM | > 100 µM | > 100 µM | > 100 µM | > 100 µM | > 100 µM | > 100 µM | > 100 µM | > 100 µM | > 89.1 µM | > 100 µM | > 100 µM | > 100 µM | > 100 µM | > 100 µM | 
2 | C=CCOC1=C(OCC=C)C(C2COC(C)(C)O2)OC1=O (stereo not drawn) | 45.2 µM | > 100 µM | > 100 µM | > 100 µM | > 100 µM | > 100 µM | > 100 µM | > 100 µM | > 100 µM | 34.9 µM | > 100 µM | > 100 µM | > 100 µM | > 100 µM | > 100 µM | > 100 µM | > 100 µM | > 100 µM | 
3 | O=C(c1ccco1)n1c2ccc(Br)cc2c2nc3ccccc3nc21 | 41.5 µM | > 100 µM | 97.6 µM | > 100 µM | > 100 µM | > 100 µM | > 100 µM | > 100 µM | > 100 µM | > 100 µM | > 100 µM | > 100 µM | > 100 µM | > 100 µM | > 100 µM | > 100 µM | > 100 µM | > 100 µM | 
4 | C=CC(C)(C)C(=C)C(=O)N(C)c1ccccc1I | > 100 µM | > 100 µM | > 100 µM | > 100 µM | > 100 µM | > 100 µM | > 100 µM | > 100 µM | > 100 µM | > 100 µM | > 100 µM | > 100 µM | > 100 µM | > 100 µM | > 100 µM | > 100 µM | > 100 µM | > 100 µM | 
5 | CCOP1(=O)C=C(Sc2ccc([N+](=O)[O-])cc2[N+](=O)[O-])C(C)(C)O1 (stereo not drawn) | 9.36 µM | > 52.2 µM | 38.6 µM | > 57.8 µM | > 20 µM | 28.3 µM | 40.8 µM | 17.6 µM | 17.2 µM | 24.8 µM | 25.9 µM | 35.3 µM | > 50.1 µM | 49.5 µM | > 75.9 µM | 49.2 µM | 7.17 µM | 26.4 µM | 
6 | COc1cc(NCc2ccc3nc(-c4ccccc4)c(N)nc3c2)cc(OC)c1OC | 62.3 µM | > 100 µM | 54.5 µM | > 100 µM | > 100 µM | > 100 µM | 92.7 µM | > 100 µM | 55.9 µM | 85.8 µM | 82.7 µM | > 100 µM | 93.6 µM | 98.6 µM | > 100 µM | > 100 µM | > 100 µM | 99.6 µM | 
7 | OCC1OC(NCCNCCNC2OC(CO)C(O)C(O)C2O)C(O)C(O)C1O (stereo not drawn) | > 100 µM | > 100 µM | 22.5 µM and > 100 µM | > 100 µM | > 100 µM | > 100 µM | > 100 µM | > 100 µM | > 100 µM | 10.3 µM and > 100 µM | > 100 µM | > 100 µM | > 100 µM | > 100 µM | > 100 µM | > 100 µM | > 100 µM | > 100 µM | 10.4 µM and 43.3 µM and > 100 µM
8 | CCCc1c(O)c(=O)c2c(OC)cc(OC)c3c4c(OC)cc(OC)c5c(=O)c(O)c(CCC)c(c1c23)c54 | 1.15 µM | 12.2 µM | 5.41 µM | 12.7 µM | 0.589 µM | 3.35 µM | 12.2 µM | 12.2 µM | 15.3 µM | 2.32 µM | > 27.7 µM | 8.71 µM | 18.2 µM | 19.5 µM | 6.75 µM | 2.31 µM | 0.463 µM | 3.73 µM | 
9 | COc1cc(Cn2c(=S)ss/c2=N\C(=S)N(C)C)cc(OC)c1OC | 15.7 µM | > 100 µM | 30.5 µM | > 100 µM | > 100 µM | > 100 µM | 38.5 µM | 3.01 µM | > 100 µM | > 100 µM | 13.6 µM | > 100 µM | > 100 µM | > 75.7 µM | > 100 µM | 52.3 µM | > 61.2 µM | > 39.5 µM | 
10 | CCOP(=O)(OCC)/C(C#N)=C/c1ccc(-c2ccc(F)cc2F)o1 | 37 µM | 38.5 µM | 31.6 µM | 33.3 µM | 38.1 µM | 26.3 µM | 30.8 µM | 48.7 µM | 43 µM | 28.6 µM | 30.1 µM | 44 µM | 24.2 µM | 44.3 µM | 33.1 µM | 44.2 µM | 33.2 µM | 42.5 µM | 
11 | CCN(CCCN(CC)C(=O)Nc1ccccc1)C(=O)Nc1ccccc1 | > 100 µM | > 100 µM | > 100 µM | > 100 µM | > 100 µM | > 100 µM | > 100 µM | > 100 µM | > 100 µM | > 100 µM | > 100 µM | > 100 µM | > 100 µM |  | > 100 µM | > 100 µM | > 100 µM | > 100 µM | 
